Experiments:
Assay type in all cases: in vivo, human
[1] = tested on: patients who experience first psychotic episode; assay: CANTAB Spatial Working Memory (SWM), adjuvant study; conditions: atypical antipsychotic drug+minocycline 200 mg/day vs +placebo
Procedure: (§1) The study was carried out in patients who experience first psychotic episode, and has followed the patient for a total duration of 6 months. As the study examines Minocycline as an adjuvant drug, the sample includes patients receiving one of the following atypical anti-psychotic drugs: Risperdal, Zyprexa, Geodon, Seroquel, and Leponex. […] In addition, the subjects were assessed by a battery of computerized neuropsychological tests (CANTAB—Cambridge Neuropsychological Test Automated Battery), measuring attention, memory, and planning. Executive function was tested by two tasks of the CANTAB: planning was tested by a computerized modification of the Tower of London, and working memory by a spatial working memory task. Minocycline was given as an add-on therapy. […] Clinical status was evaluated by the aforementioned scales at the onset of the study, every week for the first 6 weeks, and then once a month for the rest of the study period. Cognitive capabilities were assessed by the neuropsychological battery of tests according to the following schedule: upon initiation of the study (referred to as visit 1 in FIGS. 5-8), 3 months (referred to as visit 2 in FIGS. 5-8), and 6 months (referred to as visit 3 in FIGS. 5-8) after the start of the study. […]

[2] = tested on: patients who experience first psychotic episode; assay: CANTAB Spatial Recognition Memory (SRM), adjuvant study; conditions: atypical antipsychotic drug+minocycline 200 mg/day vs +placebo; time x group p<0.01
Procedure: as §1, with “Memory” for “Executive function”, “using spatial and pattern recognition and spatial span” for “by two”, “CANTAB.” for “CANTAB: planning was tested by a computerized modification of the Tower of London, and working memory by a spatial working memory task.”, “therapy. Prior to randomization into minocycline/placebo adjuvant treatment, a preliminary (lead-in phase) screening phase of placebo treatment was undertaken: Placebo was given as an adjuvant to all patients for two weeks.” for “therapy.”

[3] = Body weight change 12 weeks after start of treatment, adjuvant study; conditions: atypical antipsychotic drug+minocycline 200 mg/day
Procedure: The study was carried out in patients who experience first psychotic episode, and has followed the patient for a total duration of 6 months. As the study examines Minocycline as an adjuvant drug, the sample includes patients receiving one of the following atypical anti-psychotic drugs: Risperdal, Zyprexa, Geodon, Seroquel, and Leponex. […] Minocycline was given as an add-on therapy. Prior to randomization into minocycline/placebo adjuvant treatment, a preliminary (lead-in phase) screening phase of placebo treatment was undertaken: Placebo was given as an adjuvant to all patients for two weeks. […] Randomization was then carried out by the principal investigator. The raters and evaluators of the subjects participating in the study were blind to the randomization. […] The body weight of the patients was measured at the start of the study and then 12 weeks later (FIG. 12).

CN(C)c1ccc(O)c2c1C[C@H]1C[C@H]3[C@H](N(C)C)C(O)=C(C(N)=O)C(=O)[C@@]3(O)C(O)=C1C2=O [minocycline]
SWM between errors ([1]; p<0.0001): improved significantly more than the placebo group | SWM strategy score ([1]; p<0.05): improved significantly more than the placebo group | SRM percent of correct responses [2]: kept relatively steady scores | proportion of patients who gained weight [3]: 31% | proportion of patients who lost weight [3]: 46%

— patent publication US20130190275A1, “COMBINED THERAPIES OF ANTIPSYCHOTIC DRUGS AND TETRACYCLINES IN THE TREATMENT OF PSYCHIATRIC DISORDERS” (MOR RESEARCH APPLICATIONS LTD., priority 2006, published 2013)
